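Method: 48-hour compound exposure of cells in 96-well plates, five concentrations, linear interpolation of endpoints. At the GI50, growth is halved.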 Calls of active or inactive are those of the source. Cut-off read from the data, not from the text of the source: active = GI50 up to about 1.1 µM and inactive = higher.
Assays:
Experiment in all cases: inhibition of tumour cell growth, NCI panel, 48 h
[1] = system: 786-0
[2] = system: A549
[3] = system: ACHN
[4] = system: BT-549
[5] = system: CAKI-1
[6] = system: CCRF-CEM
[7] = system: COLO 205
[8] = system: DU-145
[9] = system: EKVX
[10] = system: HCC 2998
[11] = system: HCT-116
[12] = system: HCT-15
[13] = system: HL-60
[14] = system: HOP-62
[15] = system: HOP-92
[16] = system: HT-29
[17] = system: Hs-578T
[18] = system: IGROV-1
[19] = system: K562
[20] = system: KM12
[21] = system: LOX IMVI
[22] = system: M14
[23] = system: MCF7
[24] = system: MDA-MB-231
[25] = system: MDA-MB-435
[26] = system: MDA-N
[27] = system: MOLT-4
[28] = system: Malme-3M
[29] = system: NCI-H226
[30] = system: NCI-H23
[31] = system: NCI-H460
[32] = system: NCI-H522
[33] = system: NCI/ADR-RES
[34] = system: OVCAR-3
[35] = system: OVCAR-4
[36] = system: OVCAR-5
[37] = system: OVCAR-8
[38] = system: PC-3
[39] = system: RPMI-8226
[40] = system: RXF 393
[41] = system: SF-268
[42] = system: SF-295
[43] = system: SF-539
[44] = system: SK-MEL-28
[45] = system: SK-MEL-2
[46] = system: SK-MEL-5
[47] = system: SK-OV-3
[48] = system: SN12C
[49] = system: SNB-19
[50] = system: SNB-75
[51] = system: SR
[52] = system: SW-620
[53] = system: T47D
[54] = system: TK-10
[55] = system: U-251
[56] = system: UACC-257
[57] = system: UACC-62
[58] = system: UO-31

## Cc1cc(NS(=O)(=O)c2ccc(NC(=O)c3ccc4[nH]c5ccccc5c(=O)c4c3)cc2)no1
[1]
  GI50: > 100 µM (inactive)
[2]
  GI50: > 100 µM (inactive)
[3]
  GI50: > 100 µM (inactive)
[4]
  GI50: > 100 µM (inactive)
[5]
  GI50: > 100 µM (inactive)
[6]
  GI50: 40.9 µM (inactive)
[7]
  GI50: > 100 µM (inactive)
[8]
  GI50: > 100 µM (inactive)
[9]
  GI50: > 100 µM (inactive)
[10]
  GI50: 85.3 µM (inactive)
[11]
  GI50: > 100 µM (inactive)
[12]
  GI50: > 100 µM
[13]
  GI50: > 100 µM (inactive)
[14]
  GI50: > 100 µM (inactive)
[15]
  GI50: 88.3 µM (inactive)
[16]
  GI50: > 100 µM (inactive)
[17]
  GI50: 49.9 µM (inactive)
[18]
  GI50: > 100 µM (inactive)
[19]
  GI50: > 100 µM (inactive)
[20]
  GI50: 44.1 µM (inactive)
[21]
  GI50: 46.5 µM (inactive)
[22]
  GI50: > 100 µM (inactive)
[23]
  GI50: > 100 µM (inactive)
[24]
  GI50: > 100 µM (inactive)
[25]
  GI50: > 100 µM (inactive)
[26]
  GI50: > 100 µM (inactive)
[27]
  GI50: 49.8 µM (inactive)
[28]
  GI50: 56.9 µM (inactive)
[29]
  GI50: > 100 µM (inactive)
[30]
  GI50: > 100 µM (inactive)
[31]
  GI50: > 100 µM (inactive)
[32]
  GI50: > 100 µM (inactive)
[33]
  GI50: > 100 µM (inactive)
[34]
  GI50: > 100 µM (inactive)
[35]
  GI50: > 100 µM (inactive)
[36]
  GI50: > 100 µM (inactive)
[37]
  GI50: > 100 µM (inactive)
[38]
  GI50: > 100 µM (inactive)
[39]
  GI50: > 100 µM (inactive)
[40]
  GI50: 45.4 µM (inactive)
[41]
  GI50: > 100 µM (inactive)
[42]
  GI50: > 100 µM (inactive)
[43]
  GI50: 68.1 µM (inactive)
[44]
  GI50: > 100 µM (inactive)
[45]
  GI50: 75.3 µM (inactive)
[46]
  GI50: > 100 µM (inactive)
[47]
  GI50: > 100 µM (inactive)
[48]
  GI50: > 100 µM (inactive)
[49]
  GI50: > 100 µM (inactive)
[50]
  GI50: > 100 µM (inactive)
[51]
  GI50: > 100 µM (inactive)
[52]
  GI50: > 100 µM (inactive)
[53]
  GI50: 69.7 µM (inactive)
[54]
  GI50: > 100 µM (inactive)
[55]
  GI50: 47.4 µM (inactive)
[56]
  GI50: > 100 µM (inactive)
[57]
  GI50: > 100 µM (inactive)
[58]
  GI50: > 100 µM (inactive)
